{"source": "patent US9980943B2", "about": "“Methods of treating muscular dystrophy” (BOARD OF REGENTS OF THE NEVADA SYSTEM OF HIGHER EDUCATION, …, priority 2013, dated 2018)", "format_in_all_cases": "cell-based, mouse", "key": {"[1]": {"system": "α7 integrin (LacZ reporter in α7+/LacZ myotubes)", "experiment": "Myotube α7 integrin FDG assay (Burkin assay in myotubes, 96-well)", "conditions": "for dose-response curve in myotubes: hits of Prestwick/Microsource screens"}, "[2]": {"system": "α7 integrin (LacZ reporter in α7βgal+/− myoblasts)", "experiment": "Myoblast α7+/LacZ integrin FDG assay (Burkin assay in myoblasts, 96-well)", "conditions": "for Burkin Assay in Myoblasts, signal relative to DMSO / Burkin Assay in Myoblasts, value relative to DMSO: α7+/LacZ myoblasts, 96-well"}, "[3]": {"system": "β-galactosidase in CMV-LacZ C2C12 myotubes", "experiment": "CMV-LacZ secondary screen in C2C12 myotubes (β-Gal stabilizing assay)", "conditions": "C2C12 CMV-LacZ myotubes, fold relative to DMSO", "excerpt": "In order to determine compounds that acted to stabilize β-gal in myogenic cells, a CMV-LacZ C2C12 cell line was used in a secondary screen. The EGFP gene from the pEGFP (Clontech) vector was replaced by LACZ PCR product with digests of the vector/PCR product performed using EcoRI (NEB) and NotI (NEB) and ligated using T4 DNA Ligase (NEB) following standard procedures to produce the CMV-LACZ vector. The LACZ gene was generated by PCR from the pBK-RSV (Stratagene) vector using primers LACZ EcoRI F- and LACZ NotI R-. The CMV-LACZ vector was then digested with AfIII (NEB) to linearize the construct, which was then transfected in C2C12 myoblasts using Lipofectamine 2000 (Invitrogen) following the manufacturer's instructions. […] Clonal lines were selected and screened for βgal levels using the myoblast FDG assay.\nThe assays were used the original 96-well format and new dose-response curves for myoblasts (N=3-6 replicates for each data point), myotubes (N=3-6 replicates for data point), and CMV-LacZ secondary assay (N=2 replicates for each data point) using concentrations of 0.5 μM, 1 μM, 5 μM, 10 μM, 20 μM, and 40 μM (Tables 9-16)."}, "[4]": {"conditions": "Mus musculus, Myoblast, 48 h, read-out: Burkin Assay in Myoblasts, signal relative to DMSO"}, "[5]": {"conditions": "Mus musculus, Myotube, read-out: Burkin Assay in Myotubes, α7 integrin LacZ reporter signal relative to DMSO"}}}
{"smiles": "c1ccc(-c2ccccn2)nc1", "note": "[2,2-Dipyridyl, reference compound]", "values": [{"measurement": "dose-response curve in myotubes", "setting": "[1]", "value": "positive dose-response curves"}]}
{"smiles": "CC(C)CCC[C@@H](C)[C@H]1CC[C@H]2[C@@H]3CC(=O)[C@H]4C[C@@H](O)CC[C@]4(C)[C@H]3CC[C@]12C", "note": "[5alpha-cholestan-3β-ol-6-one, reference compound]", "values": [{"measurement": "dose-response curve in myotubes", "setting": "[1]", "value": "positive dose-response curve"}]}
{"smiles": "Cc1cc(C2CCCCC2)n(O)c(=O)c1", "note": "[Ciclopirox ethanolamine, reference compound]", "values": [{"measurement": "dose-response curve in myotubes", "setting": "[1]", "value": "positive dose-response curves"}]}
{"smiles": "CCc1nnc(NC(=O)c2ccc(S(=O)(=O)NCC(C)C)cc2)s1", "note": "[MLS000027478-01]", "values": [{"measurement": "Burkin Assay in Myoblasts, signal relative to DMSO", "setting": "[2]; 0.5 uM", "value": 0.9552}, {"measurement": "Burkin Assay in Myoblasts, signal relative to DMSO", "setting": "[2]; 1 uM", "value": 0.9044}, {"measurement": "Burkin Assay in Myoblasts, signal relative to DMSO", "setting": "[2]; 5 uM", "value": 0.9721}, {"measurement": "Burkin Assay in Myoblasts, signal relative to DMSO", "setting": "[2]; 10 uM", "value": 0.9209}, {"measurement": "Burkin Assay in Myoblasts, signal relative to DMSO", "setting": "[2]; 20 uM", "value": 0.9145}, {"measurement": "Burkin Assay in Myoblasts, signal relative to DMSO", "setting": "[2]; 40 uM", "value": 0.816}, {"measurement": "Burkin Assay in Myotubes, α7 integrin LacZ reporter signal relative to DMSO", "setting": "[1]; 0.5 uM", "value": 1.0222}, {"measurement": "Burkin Assay in Myotubes, α7 integrin LacZ reporter signal relative to DMSO", "setting": "[1]; 1 uM", "value": 0.9043}, {"measurement": "Burkin Assay in Myotubes, α7 integrin LacZ reporter signal relative to DMSO", "setting": "[1]; 5 uM", "value": 0.984}, {"measurement": "Burkin Assay in Myotubes, α7 integrin LacZ reporter signal relative to DMSO", "setting": "[1]; 10 uM", "value": 0.9583}, {"measurement": "Burkin Assay in Myotubes, α7 integrin LacZ reporter signal relative to DMSO", "setting": "[1]; 20 uM", "value": 0.9854}, {"measurement": "Burkin Assay in Myotubes, α7 integrin LacZ reporter signal relative to DMSO", "setting": "[1]; 40 uM", "value": 0.9115}, {"measurement": "CMV-LACZ in Myotubes, signal relative to DMSO", "setting": "[3]; 5 uM", "value": 0.9489}, {"measurement": "CMV-LACZ in Myotubes, signal relative to DMSO", "setting": "[3]; 10 uM", "value": 0.924}, {"measurement": "CMV-LACZ in Myotubes, signal relative to DMSO", "setting": "[3]; 20 uM", "value": 0.9443}, {"measurement": "CMV-LACZ in Myotubes, signal relative to DMSO", "setting": "[3]; 40 uM", "value": 0.979}]}
{"smiles": "CCOCCCN1C(=O)CN(C2CCCCCC2)C(=O)C1c1ccc(OC)cc1", "note": "(stereo not drawn) [MLS000046123-01]", "values": [{"measurement": "Burkin Assay in Myoblasts, value relative to DMSO", "setting": "[2]; 0.5 uM", "value": 1.049}, {"measurement": "Burkin Assay in Myoblasts, value relative to DMSO", "setting": "[2]; 1 uM", "value": 0.9808}, {"measurement": "Burkin Assay in Myoblasts, value relative to DMSO", "setting": "[2]; 5 uM", "value": 0.9565}, {"measurement": "Burkin Assay in Myoblasts, value relative to DMSO", "setting": "[2]; 10 uM", "value": 1.007}, {"measurement": "Burkin Assay in Myoblasts, value relative to DMSO", "setting": "[2]; 20 uM", "value": 1.002}, {"measurement": "Burkin Assay in Myoblasts, value relative to DMSO", "setting": "[2]; 40 uM", "value": 0.9894}, {"measurement": "Burkin Assay in Myotubes (signal relative to DMSO)", "setting": "[1]; 0.5 uM", "value": 0.9802}, {"measurement": "Burkin Assay in Myotubes (signal relative to DMSO)", "setting": "[1]; 1 uM", "value": 0.9389}, {"measurement": "Burkin Assay in Myotubes (signal relative to DMSO)", "setting": "[1]; 5 uM", "value": 0.8905}, {"measurement": "Burkin Assay in Myotubes (signal relative to DMSO)", "setting": "[1]; 10 uM", "value": 0.865}, {"measurement": "Burkin Assay in Myotubes (signal relative to DMSO)", "setting": "[1]; 20 uM", "value": 0.9268}, {"measurement": "Burkin Assay in Myotubes (signal relative to DMSO)", "setting": "[1]; 40 uM", "value": 0.9203}, {"measurement": "CMV-LACZ in Myotubes, signal relative to DMSO", "setting": "[3]; 5 uM", "value": 0.9124}, {"measurement": "CMV-LACZ in Myotubes, signal relative to DMSO", "setting": "[3]; 10 uM", "value": 1.084}, {"measurement": "CMV-LACZ in Myotubes, signal relative to DMSO", "setting": "[3]; 20 uM", "value": 1.145}, {"measurement": "CMV-LACZ in Myotubes, signal relative to DMSO", "setting": "[3]; 40 uM", "value": 1.076}]}
{"smiles": "Cc1nc2c([nH]1)OC(N)=C(C#N)C21CCN(Cc2ccccc2)CC1", "note": "[MLS000047918-01]", "values": [{"measurement": "fold induction at 0.5 µM", "setting": "[2]; [4]", "value": 0.873}, {"measurement": "fold induction at 1 µM", "setting": "[2]; [4]", "value": 0.912}, {"measurement": "fold induction at 5 µM", "setting": "[2]; [4]", "value": 0.948}, {"measurement": "fold induction at 10 µM", "setting": "[2]; [4]", "value": 1}, {"measurement": "fold induction at 20 µM", "setting": "[2]; [4]", "value": 0.803}, {"measurement": "fold induction at 40 µM", "setting": "[2]; [4]", "value": 0.78}, {"measurement": "fold induction at 0.5 µM", "setting": "[1]; [5]", "value": 1.4}, {"measurement": "fold induction at 1 µM", "setting": "[1]; [5]", "value": 0.913}, {"measurement": "fold induction at 5 µM", "setting": "[1]; [5]", "value": 0.899}, {"measurement": "fold induction at 10 µM", "setting": "[1]; [5]", "value": 0.872}, {"measurement": "fold induction at 20 µM", "setting": "[1]; [5]", "value": 0.967}, {"measurement": "fold induction at 40 µM", "setting": "[1]; [5]", "value": 0.945}, {"measurement": "fold induction at 5 µM", "setting": "[3]; Mus musculus, C2C12, read-out: CMV-LACZ in Myotubes, signal relative to DMSO, 5 uM", "value": 0.937}, {"measurement": "fold induction at 10 µM", "setting": "[3]; Mus musculus, C2C12, read-out: CMV-LACZ in Myotubes, signal relative to DMSO, 10 uM", "value": 0.8}, {"measurement": "fold induction at 20 µM", "setting": "[3]; Mus musculus, C2C12, read-out: CMV-LACZ in Myotubes, signal relative to DMSO, 20 uM", "value": 1.04}, {"measurement": "fold induction at 40 µM", "setting": "[3]; Mus musculus, C2C12, read-out: CMV-LACZ in Myotubes, signal relative to DMSO, 40 uM", "value": 1.05}]}
